From ChEMBL document CHEMBL1201862, “PubChem BioAssay data set” (2004)
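Grown in 96-well plates, cells were treated for 48 hours with each compound at five concentrations. Insufficient inhibition: endpoint recorded as highest concentration tested. GI50: concentration for 50% inhibition of growth.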 The source made the active and inactive calls. Rule as the data show it: active = GI50 up to about 1.1 µM and inactive = higher.

Tests used:
Assay in all cases: NCI-60 cell line screen, 48 h
[1] = test system: 786-0
[2] = test system: A549
[3] = test system: ACHN
[4] = test system: DU-145
[5] = test system: HCT-15
[6] = test system: HOP-92
[7] = test system: K562
[8] = test system: MCF7
[9] = test system: NCI-H226
[10] = test system: NCI-H460
[11] = test system: OVCAR-5
[12] = test system: RXF 393
[13] = test system: SF-539
[14] = test system: SK-MEL-28
[15] = test system: SK-MEL-2
[16] = test system: SN12C
[17] = test system: SNB-19
[18] = test system: SNB-75

Structure (SMILES)	GI50 [1]	GI50 [2]	GI50 [3]	GI50 [4]	GI50 [5] [µM]	GI50 [6]	GI50 [7]	GI50 [8]	GI50 [9]	GI50 [10]	GI50 [11]	GI50 [12]	GI50 [13]	GI50 [14]	GI50 [15]	GI50 [16]	GI50 [17]	GI50 [18]
O=c1c2ccccc2n2c(-c3ccccc3O)nnc2n1-c1ccccc1	> 100 µM (inactive)	> 100 µM (inactive)	> 100 µM (inactive)	> 100 µM (inactive)	> 100	> 100 µM (inactive)	> 100 µM (inactive)	> 100 µM (inactive)	> 100 µM (inactive)	> 100 µM (inactive)	> 100 µM (inactive)	> 100 µM (inactive)	> 100 µM (inactive)	> 100 µM (inactive)	> 100 µM (inactive)	> 100 µM (inactive)	> 100 µM (inactive)	> 100 µM (inactive)
CC(C)(C)C(=O)C(C(=O)C(C)(C)C)C(=O)C(C)(C)C	> 100 µM (inactive)	> 100 µM (inactive)	> 100 µM (inactive)	> 100 µM (inactive)	> 100	> 100 µM (inactive)	> 100 µM (inactive)	> 100 µM (inactive)	> 100 µM (inactive)	> 100 µM (inactive)	> 100 µM (inactive)	> 100 µM (inactive)	> 100 µM (inactive)	> 100 µM (inactive)	> 100 µM (inactive)	> 100 µM (inactive)	> 100 µM (inactive)	71 µM (inactive)
O=C(CSCC(=O)N/N=C/c1cccc(O)c1)N/N=C/c1cccc(O)c1	> 100 µM (inactive)	> 100 µM (inactive)	> 100 µM (inactive)	> 100 µM (inactive)	> 100	> 100 µM (inactive)	> 100 µM (inactive)	> 100 µM (inactive)	82.4 µM (inactive)	> 100 µM (inactive)	> 100 µM (inactive)	> 100 µM (inactive)	> 100 µM (inactive)	> 100 µM (inactive)	> 100 µM (inactive)	> 100 µM (inactive)	> 100 µM (inactive)	> 100 µM (inactive)
CCOC(=O)CCC(NC(=O)c1ccc(CNc2nc3ccccc3nc2C(=O)OCC)cc1)C(=O)OCC (configuration not stated)	> 100 µM (inactive)	> 100 µM (inactive)	> 100 µM (inactive)	> 100 µM (inactive)	> 100	> 100 µM (inactive)	> 100 µM (inactive)	> 100 µM (inactive)	> 100 µM (inactive)		> 100 µM (inactive)			> 100 µM (inactive)	> 100 µM (inactive)	> 100 µM (inactive)	23.7 µM (inactive)	> 100 µM (inactive)
CN/C(=N\n1cnnc1)OC	> 100 µM (inactive)	> 100 µM (inactive)	> 100 µM (inactive)	> 100 µM (inactive)	> 100	> 100 µM (inactive)	> 100 µM (inactive)	> 100 µM (inactive)		> 100 µM (inactive)	> 100 µM (inactive)	> 100 µM (inactive)		> 100 µM (inactive)	> 100 µM (inactive)		> 100 µM (inactive)	
O=[N+]([O-])c1ccc2[nH]nc(OCc3ccccc3Cl)c2c1	25 µM (inactive)	39.4 µM (inactive)	19.8 µM (inactive)	50.7 µM (inactive)	85.5	20.5 µM (inactive)	> 100 µM (inactive)		68.5 µM (inactive)	35.5 µM (inactive)	52.6 µM (inactive)	18.2 µM (inactive)	22.4 µM (inactive)	> 100 µM (inactive)	27.2 µM (inactive)	> 100 µM (inactive)	34.7 µM (inactive)	81.5 µM (inactive)
O=c1oc2cccnc2n1CCCCN1CCN(c2ccccc2)CC1	> 100 µM (inactive)	> 100 µM (inactive)	> 100 µM (inactive)	> 100 µM (inactive)	> 100	> 100 µM (inactive)	> 100 µM (inactive)	> 100 µM (inactive)		> 100 µM (inactive)	> 100 µM (inactive)	> 100 µM (inactive)	> 100 µM (inactive)	> 100 µM (inactive)	> 100 µM (inactive)		> 100 µM (inactive)	
O=S1(=O)COc2ccccc2-c2ncncc21	> 100 µM (inactive)	> 100 µM (inactive)	> 100 µM (inactive)		> 100	> 100 µM (inactive)	> 100 µM (inactive)		> 100 µM (inactive)	> 100 µM (inactive)	> 100 µM (inactive)	1.02 µM (active)	> 100 µM (inactive)	> 100 µM (inactive)		> 100 µM (inactive)	> 100 µM (inactive)	> 100 µM (inactive)
COC(=O)C12C3C4C1C1C2C3C41I (configuration not stated)	> 100 µM (inactive)	> 100 µM (inactive)	> 100 µM (inactive)		> 100	> 100 µM (inactive)	> 100 µM (inactive)		> 100 µM (inactive)	> 100 µM (inactive)	> 100 µM (inactive)	> 100 µM (inactive)	> 100 µM (inactive)	> 100 µM (inactive)		> 100 µM (inactive)	> 100 µM (inactive)	
O=c1[nH]c(=O)n(COCCO)cc1-c1ccccc1	> 100 µM (inactive)	> 100 µM (inactive)	> 100 µM (inactive)	> 100 µM (inactive)	> 100	> 100 µM (inactive)	> 100 µM (inactive)	> 100 µM (inactive)		> 100 µM (inactive)	> 100 µM (inactive)			> 100 µM (inactive)	> 100 µM (inactive)	> 100 µM (inactive)	> 100 µM (inactive)	
O=C(ON=C1c2ccccc2C(Br)C(Br)c2ccccc21)c1cc([N+](=O)[O-])cc([N+](=O)[O-])c1 (configuration not stated)	14.9 µM (inactive)	30.4 µM (inactive)	21.3 µM (inactive)	25.9 µM (inactive)	20.5	16 µM (inactive)	16.9 µM (inactive)	24.7 µM (inactive)	24.9 µM (inactive)	19.2 µM (inactive)	22.4 µM (inactive)	19.6 µM (inactive)	18 µM (inactive)	18.9 µM (inactive)	31.6 µM (inactive)	18.5 µM (inactive)	24.1 µM (inactive)	13.9 µM (inactive)
Cc1ccccc1NC(=O)Cc1csc(N/N=C2\C(=O)Nc3ccccc32)n1	43 µM (inactive)	48.9 µM (inactive)	36.8 µM (inactive)	75 µM (inactive)	37.2	30.2 µM (inactive)	64.7 µM (inactive)	50 µM (inactive)	41.8 µM (inactive)	35.4 µM (inactive)	41.7 µM (inactive)	28.8 µM (inactive)	17.9 µM (inactive)	1 µM (active)	44.6 µM (inactive)	61.2 µM (inactive)	71.8 µM (inactive)	55.1 µM (inactive)
O=C(Nc1c(O)[nH]c(=S)[nH]c1=O)c1ccc2ccccc2n1	> 100 µM (inactive)	> 100 µM (inactive)	> 100 µM (inactive)		> 100	> 100 µM (inactive)	> 100 µM (inactive)		> 100 µM (inactive)	> 100 µM (inactive)			> 100 µM (inactive)	> 100 µM (inactive)		> 100 µM (inactive)	> 100 µM (inactive)	> 100 µM (inactive)
